In US8952024B2, “Herbicidal pyrimidone derivatives” (E I du Pont de Nemours and Company, priority 2009, dated 2015):

What was measured:
Format in all cases: in vivo
[1] = system: barnyardgrass (Echinochloa crus-galli); experiment: Test A pre-/postemergence plant response; details: for Barnyardgrass plant response rating: visual injury, 0 to 100 scale (0 no effect, 100 complete control), approx. ten days
Method in brief: (§1)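 Plants grown from seed in a loam soil and sand mix received test compounds both as a preemergence soil spray and, at the same time, as a postemergence spray at the one- to two-leaf stage. Injury was judged visually against untreated controls roughly ten days later, 0 meaning no effect and 100 complete control.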

[2] = system: corn (Zea mays); experiment: Test A pre-/postemergence plant response; details: for Corn plant response rating: visual injury, 0 to 100 scale (0 no effect, 100 complete control), approx. ten days
Method in brief: as §1

[3] = system: giant foxtail (Setaria faberii); experiment: Test A pre-/postemergence plant response; details: for Foxtail, Giant plant response rating: visual injury, 0 to 100 scale (0 no effect, 100 complete control), approx. ten days
Method in brief: as §1

[4] = system: large crabgrass (Digitaria sanguinalis); experiment: Test A pre-/postemergence plant response; details: for Crabgrass, Large plant response rating: visual injury, 0 to 100 scale (0 no effect, 100 complete control), approx. ten days
Method in brief: as §1

[5] = system: morningglory (Ipomoea spp.); experiment: Test A pre-/postemergence plant response; details: for Morningglory plant response rating: visual injury, 0 to 100 scale (0 no effect, 100 complete control), approx. ten days
Method in brief: as §1

[6] = system: pigweed (Amaranthus retroflexus); experiment: Test A pre-/postemergence plant response; details: for Pigweed plant response rating: visual injury, 0 to 100 scale (0 no effect, 100 complete control), approx. ten days
Method in brief: as §1

[7] = system: velvetleaf (Abutilon theophrasti); experiment: Test A pre-/postemergence plant response; details: for Velvetleaf plant response rating: visual injury, 0 to 100 scale (0 no effect, 100 complete control), approx. ten days
Method in brief: as §1

[8] = system: wheat (Triticum aestivum); experiment: Test A pre-/postemergence plant response; details: for Wheat plant response rating: visual injury, 0 to 100 scale (0 no effect, 100 complete control), approx. ten days
Method in brief: as §1

[9] = system: barnyardgrass (Echinochloa crus-galli); experiment: Test B flooded paddy test; details: for Plant response rating, Barnyardgrass: Flood (flooded paddy test), 13 to 15 days; for Barnyardgrass plant response rating: Flood, 31 g ai/ha, scale 0 to 100 (0 no effect, 100 complete control)
Method in brief: (§2)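 Post-flood paddy application: compounds are introduced into water 3 cm deep over the soil, reaching plants at the 2-leaf stage. The water level is maintained, and after 13–15 days under greenhouse conditions, response is judged by eye relative to controls, where 100 means complete control.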

[10] = system: ducksalad (Heteranthera limosa); experiment: Test B flooded paddy test; details: for Plant response rating, Ducksalad: Flood (flooded paddy test), 13 to 15 days; for Ducksalad plant response rating: Flood, 31 g ai/ha, scale 0 to 100 (0 no effect, 100 complete control)
Method in brief: as §2

[11] = system: rice (Oryza sativa); experiment: Test B flooded paddy test; details: for Plant response rating, Rice: Flood (flooded paddy test), 13 to 15 days; for Rice plant response rating: Flood, 31 g ai/ha, scale 0 to 100 (0 no effect, 100 complete control)
Method in brief: as §2

[12] = system: umbrella sedge (Cyperus difformis); experiment: Test B flooded paddy test; details: for Plant response rating, Sedge, Umbrella: Flood (flooded paddy test), 13 to 15 days; for Sedge, Umbrella plant response rating: Flood, 31 g ai/ha, scale 0 to 100 (0 no effect, 100 complete control)
Method in brief: as §2

[13] = Postemergence, 125 g ai/ha, 0 to 100 scale where 0 is no effect and 100 is complete control
[14] = Preemergence, 125 g ai/ha, 0 to 100 scale, 0 = no effect, 100 = complete control
[15] = Preemergence, 500 g ai/ha, 0 to 100 scale, 0 = no effect, 100 = complete control
[16] = 125 g ai/ha, scale 0 to 100, 0 is no effect, 100 is complete control
[17] = 250 g ai/ha, flooded paddy test, visual rating on 0 to 100 scale (0 no effect, 100 complete control) after 13 to 15 days
[18] = 62 g ai/ha, scale of 0 to 100 where 0 is no effect and 100 is complete control

COc1ccc(-n2c(-c3cccc(Br)c3)ncc(C(=O)C3=C(O)CCCC3=O)c2=O)cc1 [Compound 176]
Plant response rating, Barnyardgrass [1, 13]: 50
Barnyardgrass plant response rating ([1]; Postemergence, 500 g ai/ha): 90
Plant response rating, Barnyardgrass [1, 14]: 10
Plant response rating, Barnyardgrass [1, 15]: 30
Plant response rating, Corn [2, 13]: 0
Corn plant response rating ([2]; Postemergence, 500 g ai/ha): 10
Plant response rating, Corn [2, 14]: 0
Plant response rating, Corn [2, 15]: 0
Plant response rating, Foxtail, Giant [3, 13]: 10
Foxtail, Giant plant response rating ([3]; Postemergence, 500 g ai/ha): 70
Plant response rating, Foxtail, Giant [3, 14]: 10
Plant response rating, Foxtail, Giant [3, 15]: 50
Plant response rating, Crabgrass, Large [4, 13]: 10
Crabgrass, Large plant response rating ([4]; Postemergence, 500 g ai/ha): 60
Plant response rating, Crabgrass, Large [4, 14]: 0
Plant response rating, Crabgrass, Large [4, 15]: 20
Plant response rating, Morningglory [5, 13]: 0
Morningglory plant response rating ([5]; Postemergence, 500 g ai/ha): 50
Plant response rating, Morningglory [5, 14]: 0
Plant response rating, Morningglory [5, 15]: 20
Plant response rating, Pigweed [6, 13]: 100
Pigweed plant response rating ([6]; Postemergence, 500 g ai/ha): 100
Plant response rating, Pigweed [6, 14]: 60
Plant response rating, Pigweed [6, 15]: 100
Plant response rating, Velvetleaf [7, 13]: 80
Velvetleaf plant response rating ([7]; Postemergence, 500 g ai/ha): 90
Plant response rating, Velvetleaf [7, 14]: 10
Plant response rating, Velvetleaf [7, 15]: 50
Plant response rating, Wheat [8, 13]: 0
Wheat plant response rating ([8]; Postemergence, 500 g ai/ha): 0
Plant response rating, Wheat [8, 14]: 0
Plant response rating, Wheat [8, 15]: 0
Plant response rating, Barnyardgrass [9, 16]: 0
Barnyardgrass plant response rating [9]: 0
Plant response rating, Ducksalad [10, 16]: 75
Ducksalad plant response rating [10]: 40
Plant response rating, Rice [11, 16]: 20
Rice plant response rating [11]: 15
Plant response rating, Sedge, Umbrella [12, 16]: 85
Sedge, Umbrella plant response rating [12]: 70

Cc1cccc(-c2ncc(C(=O)C3=C(O)CCCC3=O)c(=O)n2-c2cc(F)ccc2C)c1 [Compound 178]
Plant response rating, Barnyardgrass [1, 13]: 80
Barnyardgrass plant response rating ([1]; Postemergence, 500 g ai/ha): 90
Plant response rating, Barnyardgrass [1, 14]: 0
Plant response rating, Barnyardgrass [1, 15]: 50
Plant response rating, Corn [2, 13]: 0
Corn plant response rating ([2]; Postemergence, 500 g ai/ha): 70
Plant response rating, Corn [2, 14]: 0
Plant response rating, Corn [2, 15]: 0
Plant response rating, Foxtail, Giant [3, 13]: 50
Foxtail, Giant plant response rating ([3]; Postemergence, 500 g ai/ha): 80
Plant response rating, Foxtail, Giant [3, 14]: 10
Plant response rating, Foxtail, Giant [3, 15]: 50
Plant response rating, Crabgrass, Large [4, 13]: 50
Crabgrass, Large plant response rating ([4]; Postemergence, 500 g ai/ha): 80
Plant response rating, Crabgrass, Large [4, 14]: 10
Plant response rating, Crabgrass, Large [4, 15]: 70
Plant response rating, Morningglory [5, 13]: 50
Morningglory plant response rating ([5]; Postemergence, 500 g ai/ha): 100
Plant response rating, Morningglory [5, 14]: 0
Plant response rating, Morningglory [5, 15]: 40
Plant response rating, Pigweed [6, 13]: 60
Pigweed plant response rating ([6]; Postemergence, 500 g ai/ha): 80
Plant response rating, Pigweed [6, 14]: 0
Plant response rating, Pigweed [6, 15]: 40
Plant response rating, Velvetleaf [7, 13]: 90
Velvetleaf plant response rating ([7]; Postemergence, 500 g ai/ha): 100
Plant response rating, Velvetleaf [7, 14]: 0
Plant response rating, Velvetleaf [7, 15]: 60
Plant response rating, Wheat [8, 13]: 0
Wheat plant response rating ([8]; Postemergence, 500 g ai/ha): 30
Plant response rating, Wheat [8, 14]: 0
Plant response rating, Wheat [8, 15]: 0
Plant response rating, Flood, Barnyardgrass [9, 17]: 80
Plant response rating, Barnyardgrass [9, 18]: 20
Plant response rating, Barnyardgrass [9, 16]: 60
Barnyardgrass plant response rating [9]: 20
Plant response rating, Flood, Ducksalad [10, 17]: 100
Plant response rating, Ducksalad [10, 18]: 75
Plant response rating, Ducksalad [10, 16]: 100
Ducksalad plant response rating [10]: 75
Plant response rating, Flood, Rice [11, 17]: 70
Plant response rating, Rice [11, 18]: 20
Plant response rating, Rice [11, 16]: 70
Rice plant response rating [11]: 0
Plant response rating, Flood, Sedge, Umbrella [12, 17]: 95
Plant response rating, Sedge, Umbrella [12, 18]: 85
Plant response rating, Sedge, Umbrella [12, 16]: 95
Sedge, Umbrella plant response rating [12]: 55
